In patent US6737383B1, “Herbicidal oxadiazolidines” (priority 1999, dated 2004):

Legend:
Green foxtail [1] = experiment: Test D green foxtail; assay type: in vivo; conditions: Preemergence, 0 to 100 scale
From the text: Seeds, tubers, or plant parts of Alexandergrass (Brachiaria plantaginea), bermuda-grass (Cynodon dactylon), common pursiane (Portulaca oleracea), common ragweed (Ambrosia elatior), common groundsel (Senecio vulgaris), dallisgrass (Paspalum dilatatum), goosegrass (Eleusine indica), guineagrass (Panicum maximum), itchgrass (Rottboellia exaltata), Johnson grass (Sorghum halepense), large crabgrass (Digitaria sanguinalis), pitted morningglory (Ipomoea lacunosa), purple nutsedge (Cyperus rotundus), sandbur (Cenchrus echinatus), sourgrass (Trichachne insularis), Spanishneedles (Bidens bipinnata), surinam grass (Brachiaria decumbens) and tall mallow (Malva sylvestris) were planted into greenhouse pots of flats containing greenhouse planting medium. Plant species were grown in separate pots or individual compartments. Preemergence applications were made within one day of planting the seed or plant part.
Test chemicals were formulated in a non-phytotoxic solvent mixture which included a surfactant and applied preemergence to the surface of the pot containing seeds in a sandy loam soil. Untreated control pots and treated pots were placed in the greenhouse for growth and visually evaluated for injury 14 to 21 days after herbicide application. Plant response ratings, summarized in Table C, are based on a 0 to 100 scale where 0 is no injury and 100 is complete control. A dash (−) response means no test result.

itchgrass = experiment: Test D itchgrass; assay type: in vivo, Rottboellia exaltata; conditions: Preemergence, 0 to 100 scale
Method in brief: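 Scoring used a 0–100 visual injury scale, with 0 meaning no effect and 100 complete control, assessed 14–21 days after application alongside untreated pots. Preemergence treatments went onto sandy loam surfaces of separately potted seeds within a day of sowing.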

common ragweed = experiment: Test D common ragweed; assay type: in vivo, Ambrosia elatior; conditions: Preemergence, 0 to 100 scale
Method in brief: (§1)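 Each weed species is planted in its own pot or compartment; preemergence doses go on the sandy loam surface within a day. The formulation is a surfactant-containing, non-phytotoxic solvent blend. Ratings come from visual comparison with untreated controls 14 to 21 days later, where 100 means complete control.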

blackgrass = experiment: Test E blackgrass; assay type: in vivo, Alopecurus myosuroides; conditions: Preemergence
green foxtail [2] = experiment: Test E green foxtail; assay type: in vivo, Setaria viridis; conditions: Preemergence
morningglory = experiment: Test B pre/postemergence morningglory; assay type: in vivo, Ipomoea hederacea
Method in brief: (§2)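 Test chemicals in a non-phytotoxic solvent mixture with surfactant were sprayed preemergence onto planted seeds and postemergence onto plants 2 to 18 cm tall (1- to 4-leaf stage). After twelve to sixteen days in a greenhouse, injury was visually rated against untreated controls from 0 (no effect) to 10 (complete control).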

giant foxtail = experiment: Test B pre/postemergence giant foxtail; assay type: in vivo, Setaria faberii
Method in brief: as §2

winter wheat [3] = experiment: Test E winter wheat; assay type: in vivo, Triticum aestivum; conditions: Preemergence
winter barley = experiment: Test E winter barley; assay type: in vivo, Hordeum vulgare; conditions: Preemergence
Green foxtail [4] = experiment: Test D green foxtail; assay type: in vivo
Method in brief: as §1

Italian ryegrass = experiment: Test E Italian ryegrass; assay type: in vivo, Lolium multiflorum; conditions: Preemergence
winter wheat [5] = experiment: Test E winter wheat; assay type: in vivo, Triticum aestivum; conditions: Postemergence
Method in brief: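 Each compound, carried in a non-phytotoxic solvent blend including surfactant, was applied (postemergence: over the top of young plants at 1- to 4-leaf stage). Plants stayed in the greenhouse about 21 to 28 days before visual comparison with untreated controls.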

wild oat = experiment: Test E wild oat; assay type: in vivo, Avena fatua; conditions: Preemergence, 0 to 100 scale where 0 is no effect and 100 is complete control
pigweed = experiment: Test B pre/postemergence pigweed; assay type: in vivo, Amaranthus retroflexus
Method in brief: as §2

[6] = Rate 16 g/ha, 0 no injury, 100 complete control
[7] = Rate 32 g/ha, 0 no injury, 100 complete control
[8] = Rate 64 g/ha, 0 no injury, 100 complete control
[9] = Rate 125 g/ha, 0 no injury, 100 complete control
[10] = Rate 500 g/ha, 0 to 100 scale where 0 is no effect and 100 is complete control
[11] = Rate 1000 g/ha, 0 to 100 scale where 0 is no effect and 100 is complete control
[12] = Postemergence, Rate 62 g/ha, scale 0 to 10, 0 is no effect, 10 is complete control
[13] = Postemergence, Rate 250 g/ha, scale 0 to 10, 0 no effect, 10 complete control
[14] = Preemergence, Rate 62 g/ha, scale 0 to 10, 0 is no effect, 10 is complete control
[15] = Preemergence, Rate 125 g/ha, scale 0 to 10 (0 no effect, 10 complete control)
[16] = Preemergence, Rate 250 g/ha, scale of 0 to 10 where 0 is no effect and 10 is complete control
[17] = Preemergence, Rate 500 g/ha, scale 0 (no effect) to 10 (complete control)
[18] = Rate 125 g/ha, Postemergence, scale 0 to 10, 0 no effect, 10 complete control
[19] = Rate 500 g/ha, Postemergence, 0 to 10 scale (0 no effect, 10 complete control)
[20] = Rate 64 g/ha, Preemergence; 0 to 100 scale, 0 no injury, 100 complete control
[21] = Rate 125 g/ha, Preemergence; 0 to 100 scale, 0 no injury, 100 complete control

Cc1cccc(C)c1-n1c(=O)on(C(=O)N(c2ccccc2)C(C)C)c1=O [Compound 46]
Plant response rating, Green foxtail (Green foxtail [1]; Rate 250 g/ha): 100 | Plant response rating, Green foxtail (Green foxtail [1]; Rate 500 g/ha): 100 | Plant response rating, Itchgrass (itchgrass; [6]): 0 | Plant response rating, Itchgrass (itchgrass; [7]): 0 | Plant response rating, Itchgrass (itchgrass; [8]): 0 | Plant response rating, Itchgrass (itchgrass; [9]): 0 | Plant response rating, Itchgrass (itchgrass; Rate 250 g/ha): 0 | Plant response rating, Itchgrass (itchgrass; Rate 500 g/ha): 10 | Plant response rating, C. ragweed (common ragweed; [6]): 0 | Plant response rating, C. ragweed (common ragweed; [7]): 0 | Plant response rating, C. ragweed (common ragweed; [8]): 0 | Plant response rating, C. ragweed (common ragweed; [9]): 0 | Plant response rating, C. ragweed (common ragweed; Rate 250 g/ha): 0 | Plant response rating, C. ragweed (common ragweed; Rate 500 g/ha): 0 | Plant response rating, Blackgrass (blackgrass; Rate 250 g/ha, 0 to 100 scale): 40 | Plant response rating, Blackgrass (blackgrass; [10]): 55 | Plant response rating, Blackgrass (blackgrass; [11]): 70 | Plant response rating, Green foxtail (green foxtail [2]; Rate 250 g/ha, 0 to 100 scale): 60 | Plant response rating, Green foxtail (green foxtail [2]; [10]): 85 | Plant response rating, Green foxtail (green foxtail [2]; [11]): 80 | Morningglory plant response rating (morningglory; [12]): 0 | Morningglory plant response rating (morningglory; [13]): 1 | Plant response rating, Morningglory (morningglory; [14]): 0 | Plant response rating, Morningglory (morningglory; [15]): 0 | Plant response rating, Morningglory (morningglory; [16]): 0 | Morningglory plant response rating (morningglory; [17]): 0 | Morningglory plant response rating (morningglory; [18]): 0 | Morningglory plant response rating (morningglory; [19]): 2 | Giant foxtail plant response rating (giant foxtail; [12]): 0 | Giant foxtail plant response rating (giant foxtail; [13]): 1 | Plant response rating, Giant foxtail (giant foxtail; [14]): 10 | Plant response rating, Giant foxtail (giant foxtail; [15]): 10 | Plant response rating, Giant foxtail (giant foxtail; [16]): 10 | Giant foxtail plant response rating (giant foxtail; [17]): 10 | Giant foxtail plant response rating (giant foxtail; [18]): 1 | Giant foxtail plant response rating (giant foxtail; [19]): 6 | Plant response rating, Wheat (winter) (winter wheat [3]; Rate 250 g/ha, 0 to 100 scale): 40 | Plant response rating, Wheat (winter) (winter wheat [3]; [10]): 70 | Plant response rating, Wheat (winter) (winter wheat [3]; [11]): 50 | Plant response rating, Barley (winter) (winter barley; Rate 250 g/ha, 0 to 100 scale): 30 | Plant response rating, Barley (winter) (winter barley; [10]): 40 | Plant response rating, Barley (winter) (winter barley; [11]): 50 | Plant response rating, Green foxtail (Green foxtail [4]; Preemergence; Rate 16 g/ha; 0 to 100 scale, 0 no injury, 100 complete control): 0 | Plant response rating, Green foxtail (Green foxtail [4]; Preemergence; Rate 32 g/ha; 0 to 100 scale, 0 no injury, 100 complete control): 0 | Plant response rating, Green foxtail (Green foxtail [4]; Rate 16 g/ha; Preemergence; 0 to 100 scale, 0 no injury, 100 complete control): 0 | Plant response rating, Green foxtail (Green foxtail [4]; Rate 32 g/ha; Preemergence; 0 to 100 scale, 0 no injury, 100 complete control): 75 | Green foxtail plant response rating (Green foxtail [4]; [20]): 30 | Plant response rating, Green foxtail (Green foxtail [4]; [20]): 30 | Green foxtail plant response rating (Green foxtail [4]; [21]): 40 | Plant response rating, Green foxtail (Green foxtail [4]; [21]): 40 | Plant response rating, Green foxtail (Green foxtail [4]; Rate 250 g/ha; Preemergence; 0 to 100 scale): 100 | Plant response rating, Green foxtail (Green foxtail [4]; Rate 500 g/ha, Preemergence; 0 to 100 scale): 100 | Plant response rating, I. Ryegrass (Italian ryegrass; Rate 250 g/ha, 0 to 100 scale): 50 | Plant response rating, I. Ryegrass (Italian ryegrass; [10]): 65 | Plant response rating, I. Ryegrass (Italian ryegrass; [11]): 70 | Plant response rating, Wheat (winter) (winter wheat [5]; Rate 250 g/ha, 0 to 100 scale (0 no effect, 100 complete control)): 60 | Plant response rating, Wheat (winter) (winter wheat [5]; Rate 1000 g/ha, 0 to 100 scale, 0 is no effect and 100 is complete control): 70 | Plant response rating, Wheat (winter) (winter wheat [5]; Rate 500 g/ha, 0 to 100 scale, 0 no effect, 100 complete control): 70 | Plant response rating, Wild oat (wild oat; Rate 500 g/ha): 60 | Plant response rating, Wild oat (wild oat; Rate 1000 g/ha): 70 | Redroot pigweed plant response rating (pigweed; [12]): 0 | Redroot pigweed plant response rating (pigweed; [13]): 0 | Plant response rating, Redroot pigweed (pigweed; [14]): 0 | Plant response rating, Redroot pigweed (pigweed; [15]): 0 | Plant response rating, Redroot pigweed (pigweed; [16]): 6 | Redroot pigweed plant response rating (pigweed; [17]): 9 | Redroot pigweed plant response rating (pigweed; [18]): 0 | Redroot pigweed plant response rating (pigweed; [19]): 0
